Data from patent US12030835B2, “Substituted amide compounds useful as farnesoid X receptor modulators” (BRISTOL-MYERS SQUIBB COMPANY, priority 2019, dated 2024).

What follows are compounds tested against T1, human FXR (Homo sapiens, UniProt Q96RI1) (assay: transient human FXR/Gal4-luciferase reporter assay). Conditions: Gal4-hFXR (ligand binding domain) fusion transiently transfected in HEK293 Gal4-luciferase reporter cells; overnight incubation; response as percentage of 8 μM GW-4064 control.
T1 construct: expressed in transfected cells
T1 sequence (Q96RI1 262-486 limits assumed): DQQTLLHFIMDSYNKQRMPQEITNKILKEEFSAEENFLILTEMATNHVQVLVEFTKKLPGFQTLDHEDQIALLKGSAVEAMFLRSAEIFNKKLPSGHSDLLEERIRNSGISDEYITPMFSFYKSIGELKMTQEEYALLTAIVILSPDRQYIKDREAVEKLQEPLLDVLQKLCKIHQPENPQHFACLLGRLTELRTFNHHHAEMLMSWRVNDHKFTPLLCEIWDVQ
Format: cell-based
Procedure: A Gal4-hFXR fusion construct reporter system was used as the primary assay to characterize compound activity. A construct including 5 copies of the Gal4 promoter response element upstream of a firefly luciferase reporter cDNA was stably expressed in HEK293 cells. This reporter cell line was maintained in Dulbecco's Modified Eagle's medium (DMEM; Gibco) supplemented with 1% penicillin-streptomycin (P/S) solution, 500 μg/ml Zeocin and 10% charcoal/dextran-treated fetal bovine serum (cs-FBS) at 37° C. in a humidified 5% CO2 atmosphere. Another plasmid was constructed in which the human cytomegalovirus promoter in the pcDNA3.1 vector directs the expression of the cDNA encoding a fusion protein comprised of the DNA binding domain from the Gal4 transcription factor fused to the ligand binding domain from human FXR.
The day prior to transfection, the reporter cells in culture are detached from the plate with trypsin and plated into a T75 flask at a sufficient density to achieve approximately 90% confluence the next morning. The transfection reagents are prepared by separately diluting 25 μg of the pcDNA3.1-Gal4-FXR plasmid into 1.87 mL of Opti-MEM (Thermo-Fisher), and 40 μL of Lipofectamine 2000 (Thermo-Fisher) into 1.87 mL of Opti-MEM, and then adding the diluted DNA solution into the diluted Lipofectamine 2000 solution and incubating at room temperature for 15-20 minutes. The mixture is further diluted with 10 ml of a solution comprised of DMEM, 10% cs-FBS, and 1% P/S immediately prior to transferring to the cells. The maintenance culture media is aspirated from the cells and the final transfection mixture is added before the cells are incubated overnight at 37° C. in a humidified 5% CO2 atmosphere. This protocol can be scaled up, and the transiently transfected cells can be cryopreserved in an assay-ready format.
For compound testing, 100 nL of the compounds (serial dilutions in DMSO) are dispensed with an Echo acoustic dispenser (Labcyte) into the wells of a Corning/Costar clear bottom 384-well white plate. The transfected cells are harvested, counted, and diluted such that 10-25,000 cells in 25 μL are plated into each well of the 384-well compound assay plate. The compound-treated cells are incubated overnight at 37° C. in a humidified 5% CO2 atmosphere. The next morning 25 μL of Steady-Glo (Promega) are added to each well of the plate, the mixture is incubated for 15 min. with shaking, and luminescence is measured on an Envision (Perkin Elmer) plate reader.

SMILES	EC50 [nM]
COC(=O)/C=C/c1cccc(N(CC23CCC(c4nc(C)no4)(CC2)CC3)C(=O)C2CCCCCC2)c1 [Example 24, methyl (E)-3-(3-(N-((4-(3-methyl-1,2,4-oxadiazol-5-yl)bicyclo[2.2.2]octan-1-yl)methyl)cycloheptanecarboxamido)phenyl) acrylate]	150
COC(=O)/C=C/c1cccc(N(CC23CCC(c4nc(C)no4)(CC2)CC3)C(=O)C23CC(F)(C2)C3)c1 [Example 25, methyl (E)-3-(3-(3-fluoro-N-((4-(3-methyl-1,2,4-oxadiazol-5-yl)bicyclo[2.2.2]octan-1-yl)methyl)bicyclo[1.1.1]pentane-1-carboxamido)phenyl)acrylate]	123
COC(=O)/C=C/c1cccc(N(CC23CCC(c4nc(C)no4)(CC2)CC3)C(=O)C2CC(F)(F)C2)c1 [Example 26, methyl (E)-3-(3-(3,3-difluoro-N-((4-(3-methyl-1,2,4-oxadiazol-5-yl)bicyclo[2.2.2]octan-1-yl)methyl)cyclobutane-1-carboxamido)phenyl)acrylate]	302
Cc1noc(C23CCC(CN(C(=O)C4CCCCC4)c4cccc(/C=C/C(=O)N(C)C)c4)(CC2)CC3)n1 [Example 27, (E)-N-(3-(3-(dimethylamino)-3-oxoprop-1-en-1-yl)phenyl)-N-((4-(3-methyl-1,2,4-oxadiazol-5-yl)bicyclo[2.2.2]octan-1-yl)methyl)cyclohexanecarboxamide]	4460
COC(=O)/C=C/c1cccc(N(CC23CCC(c4ccc(C5CC5)cc4)(CC2)CC3)C(=O)C2CC2)c1 [Example 28, Methyl (E)-3-(3-(N-((4-(4-cyclopropylphenyl)bicyclo[2.2.2]octan-1-yl)methyl)cyclopropanecarboxamido)phenyl)acrylate]	947
COC(=O)/C=C/c1cccc(N(CC23CCC(c4ccc(C5CC5)cc4)(CC2)CC3)C(=O)C2CCCCC2)c1 [Example 29, Methyl (E)-3-(3-(N-((4-(4-cyclopropylphenyl)bicyclo[2.2.2]octan-1-yl)methyl)cyclohexanecarboxamido)phenyl)acrylate]	161
COC(=O)C1=Cc2cccc(N(CC34CCC(c5ccc(C6CC6)cc5)(CC3)CC4)C(=O)C3CCCCC3)c2CC1 [Example 30, Methyl 5-(N-((4-(4-cyclopropylphenyl)bicyclo[2.2.2]octan-1-yl)methyl)cyclohexanecarboxamido)-3,4-dihydronaphthalene-2-carboxylate]	195
COC(=O)C1=Cc2cccc(N(CC34CCC(c5ccc(C6CC6)cc5)(CC3)CC4)C(=O)C3CC3)c2CC1 [Example 31, methyl 5-(N-((4-(4-cyclopropylphenyl)bicyclo[2.2.2]octan-1-yl)methyl)cyclopropanecarboxamido)-3,4-dihydronaphthalene-2-carboxylate]	796
COC(=O)C1=Cc2cccc(N(CC34CCC(c5ccc(C6CC6)cc5)(CC3)CC4)C(=O)C(C)C)c2CC1 [Example 32, methyl 5-(N-((4-(4-cyclopropylphenyl)bicyclo[2.2.2]octan-1-yl)methyl)isobutyramido)-3,4-dihydronaphthalene-2-carboxylate]	466
COC(=O)/C=C/c1cccc(N(CC23CCC(c4nc5ccccc5s4)(CC2)CC3)C(=O)C2CC2)c1 [Example 33, Methyl (E)-3-(3-(N-((4-(benzo[d]thiazol-2-yl)bicyclo[2.2.2]octan-1-yl)methyl)cyclopropanecarboxamido)phenyl)acrylate]	414
COC(=O)/C=C/c1cccc(N(CC23CCC(c4nc5ccccc5s4)(CC2)CC3)C(=O)C2CCCCC2)c1 [Example 34, Methyl (E)-3-(3-(N-((4-(benzo[d]thiazol-2-yl)bicyclo[2.2.2]octan-1-yl)methyl)cyclohexanecarboxamido)phenyl)acrylate]	222
COc1ccc(C23CCC(CN(C(=O)C4CCCCC4)c4cccc(/C=C/c5nc(C)no5)c4)(CC2)CC3)cc1 [Example 35, (E)-N-((4-(4-methoxyphenyl)bicyclo[2.2.2]octan-1-yl)methyl)-N-(3-(2-(3-methyl-1,2,4-oxadiazol-5-yl)vinyl)phenyl)cyclohexanecarboxamide]	446
COC(=O)/C=C(\C)c1cccc(N(CC23CCC(c4ccc(C5CC5)cc4)(CC2)CC3)C(=O)C2CC2)c1 [Example 36, Methyl (E)-3-(3-(N-((4-(4-cyclopropylphenyl)bicyclo[2.2.2]octan-1-yl)methyl)cyclopropanecarboxamido)phenyl)but-2-enoate]	1780
COC(=O)/C=C(\C)c1cccc(N(CC23CCC(c4ccc(C5CC5)cc4)(CC2)CC3)C(=O)C2CCCCC2)c1 [Example 37, Methyl (E)-3-(3-(N-((4-(4-cyclopropylphenyl)bicyclo[2.2.2]octan-1-yl)methyl)cyclohexanecarboxamido)phenyl)but-2-enoate]	498
COC(=O)/C=C/c1cccc(N(CC23CCC(c4ccc(C(C)C)cc4)(CC2)CC3)C(=O)C2CCCCC2)c1 [Example 38, Methyl (E)-3-(3-(N-((4-(4-isopropylphenyl)bicyclo[2.2.2]octan-1-yl)methyl)cyclohexanecarboxamido)phenyl)acrylate]	196
COC(=O)/C=C/c1cccc(N(CC23CCC(c4ccc(C(C)C)cc4)(CC2)CC3)C(=O)C2CC2)c1 [Example 39, Methyl (E)-3-(3-(N-((4-(4-isopropylphenyl)bicyclo[2.2.2]octan-1-yl)methyl)cyclopropanecarboxamido)phenyl)acrylate]	1430
COC(=O)C1=Cc2cccc(N(CC34CCC(c5nc(C)no5)(CC3)CC4)C(=O)C3CCCCC3)c2CC1 [Example 40, Methyl 5-(N-((4-(3-methyl-1,2,4-oxadiazol-5-yl)bicyclo[2.2.2]octan-1-yl)methyl)cyclohexanecarboxamido)-3,4-dihydronaphthalene-2-carboxylate]	1070
COC(=O)/C=C/c1cccc(N(CC23CCC(c4nc(N5CCOCC5)no4)(CC2)CC3)C(=O)C2CCCCC2)c1 [Example 42, Methyl (E)-3-(3-(N-((4-(3-morpholino-1,2,4-oxadiazol-5-yl)bicyclo[2.2.2]octan-1-yl)methyl)cyclohexanecarboxamido)phenyl)acrylate]	118
COC(=O)/C=C/c1cccc(N(CC23CCC(c4nc(C5CCOCC5)no4)(CC2)CC3)C(=O)C2CCCCC2)c1 [Example 43, Methyl (E)-3-(3-(N-((4-(3-(tetrahydro-2H-pyran-4-yl)-1,2,4-oxadiazol-5-yl)bicyclo[2.2.2]octan-1-yl)methyl)cyclohexanecarboxamido)phenyl)acrylate]	107
COC(=O)/C=C/c1cccc(N(CC23CCC(c4noc(C)n4)(CC2)CC3)C(=O)C2CCCCC2)c1 [Example 44, Methyl (E)-3-(3-(N-((4-(5-methyl-1,2,4-oxadiazol-3-yl)bicyclo[2.2.2]octan-1-yl)methyl)cyclohexanecarboxamido)phenyl)acrylate]	87
COC(=O)C1=Cc2cccc(N(CC34CCC(c5ccc6c(cnn6C)c5)(CC3)OC4)C(=O)C3CCCCC3)c2CC1 [Example 45, Methyl 5-(N-((1-(1-methyl-1H-indazol-5-yl)-2-oxabicyclo[2.2.2]octan-4-yl)methyl)cyclohexanecarboxamido)-3,4-dihydronaphthalene-2-carboxylate]	1150
CC(C)(O)C#Cc1cccc(N(CC23CCC(c4nnc(C(C)(C)C)o4)(CC2)CC3)C(=O)C23CC(F)(C2)C3)c1 [Example 48, N-((4-(5-(tert-Butyl)-1,3,4-oxadiazol-2-yl)bicyclo[2.2.2]octan-1-yl)methyl)-3-fluoro-N-(3-(3-hydroxy-3-methylbut-1-yn-1-yl)phenyl)bicyclo[1.1.1]pentane-1-carboxamide]	30
CC(C)(O)C#Cc1cccc(N(CC23CCC(c4noc(C(C)(F)F)n4)(CC2)CC3)C(=O)C23CC(F)(C2)C3)c1 [Example 49, N-((4-(5-(1,1-difluoroethyl)-1,2,4-oxadiazol-3-yl)bicyclo[2.2.2]octan-1-yl)methyl)-3-fluoro-N-(3-(3-hydroxy-3-methylbut-1-yn-1-yl)phenyl)bicyclo[1.1.1]pentane-1-carboxamide]	39
